The record followed here is US8314117B2, “CGRP receptor antagonists” (Bristol-Myers Squibb Company, priority 2009, dated 2012).

Structures are written as SMILES.

T1 sequence (Q16602 23-461): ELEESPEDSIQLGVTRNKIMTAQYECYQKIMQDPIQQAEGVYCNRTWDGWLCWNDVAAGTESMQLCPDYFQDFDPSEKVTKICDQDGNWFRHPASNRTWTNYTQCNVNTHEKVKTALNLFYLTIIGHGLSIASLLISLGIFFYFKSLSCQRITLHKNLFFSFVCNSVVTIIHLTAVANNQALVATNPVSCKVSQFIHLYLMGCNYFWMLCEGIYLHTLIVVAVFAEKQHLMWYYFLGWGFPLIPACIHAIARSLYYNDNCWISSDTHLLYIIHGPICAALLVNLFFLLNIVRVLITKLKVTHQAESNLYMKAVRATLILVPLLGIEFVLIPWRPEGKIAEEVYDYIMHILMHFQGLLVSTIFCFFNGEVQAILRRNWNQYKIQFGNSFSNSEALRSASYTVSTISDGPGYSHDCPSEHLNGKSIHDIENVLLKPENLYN
T1 sequence (O60894 27-148): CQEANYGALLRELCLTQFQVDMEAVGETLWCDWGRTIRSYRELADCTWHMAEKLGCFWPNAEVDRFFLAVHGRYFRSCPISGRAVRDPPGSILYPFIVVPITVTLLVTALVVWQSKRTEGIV

This test has as its target T1, Human CGRP Receptor (Homo sapiens, UniProt O60894+Q16602).
T1 construct: Crude membranes were prepared from SK-N-MC cells expressing CGRP receptors; endogenous in cells; host or cells: SK-N-MC cells (crude membranes)
Kind of test: Radioligand binding assay, [125I]-CGRP displacement from SK-N-MC cell membranes. Conditions: SK-N-MC membranes (7 μg/well); [125I]-CGRP final 18 pM; room temperature 2 h; at least two separate experiments. As for the experimental part: Tissue Culture. SK-N-MC cells were grown at 37° C. in 5% CO2 as a monolayer in medium consisting of MEM with Earle's salts and L-glutamine (Invitrogen) supplemented with 10% fetal bovine serum (Invitrogen). Membrane Preparation. Crude membranes were prepared from SK-N-MC cells expressing CGRP receptors. The cells were rinsed twice with phosphate-buffered saline (155 mM NaCl, 3.3 mM Na2HPO4, 1.1 mM […]4, pH 7.4), and incubated for 5-10 min. at 4° C. in hypotonic lysis buffer consisting of 10 mM Tris (pH 7.4) and 5 mM EDTA. […] Homogenates were centrifuged at 32,000×g for 30 min. The pellets were resuspended in cold hypotonic lysis buffer with 0.1% mammalian protease inhibitor cocktail (Sigma) and assayed for protein concentration. The SK-N-MC homogenate was aliquoted and stored at -80° C. Radioligand Binding Assay. The compounds of invention were solubilized and carried through serial dilutions using 100% DMSO. […] [^125I]-CGRP (GE Healthcare or Perkin-Elmer) was diluted to […] in assay buffer and a volume of 50 μl was added to each well. SK-N-MC membranes were thawed, diluted in assay buffer with fresh 0.1% mammalian protease inhibitor cocktail (Sigma), and re-homogenized. SK-N-MC homogenate (7 μg/well) was added in a volume of 100 μl. The assay plates were then incubated at room temperature for 2 h. […] Protein bound radioactivity was determined using a gamma or scintillation counter. […] Final assay concentration of [^125I]-CGRP was 18 pM. […] All compounds of invention were evaluated in at least two separate experiments.
For `O=C(O[C@@H]1CC[C@@H](c2cccc(F)c2F)/C(=N/O)c2cccnc21)N1CCC(n2c(=O)[nH]c3ncccc32)CC1` [Example 15, (6S,9R,Z)-6-(2,3-difluorophenyl)-5-(hydroxyimino)-6,7,8,9-tetrahydro-5H-cyclohepta[b]pyridin-9-yl 4-(2-oxo-2,3-dihydro-1H-imidazo[4,5-b]pyridin-1-yl)piperidine-1-carboxylate], the IC50 stood at 28 nM.
For the molecule `CN(C)[C@@H]1c2cccnc2[C@H](OC(=O)N2CCC(n3c(=O)[nH]c4ncccc43)CC2)CC[C@H]1c1cccc(F)c1F` [Example 14, (5S,6S,9R)-6-(2,3-difluorophenyl)-5-(dimethylamino)-6,7,8,9-tetrahydro-5H-cyclohepta[b]pyridin-9-yl 4-(2-oxo-2,3-dihydro-1H-imidazo[4,5-b]pyridin-1-yl)piperidine-1-carboxylate], the IC50 is 2 nM.
Take `O=C(O[C@@H]1CC[C@@H](c2cccc(F)c2F)[C@H](O)c2cccnc21)N1CCC(n2c(=O)[nH]c3ncccc32)CC1` [Example 4, (5S,6S,9R)-6-(2,3-difluorophenyl)-5-hydroxy-6,7,8,9-tetrahydro-5H-cyclohepta[b]pyridin-9-yl 4-(2-oxo-2,3-dihydro-1H-imidazo[4,5-b]pyridin-1-yl)piperidine-1-carboxylate]: the IC50 stood at 0.16 nM.
As for `O=C(O[C@@H]1CC[C@H](c2cccc(F)c2F)[C@H](O)c2cccnc21)N1CCC(n2c(=O)[nH]c3ncccc32)CC1` [Example 6, (5S,6R,9R)-6-(2,3-difluorophenyl)-5-hydroxy-6,7,8,9-tetrahydro-5H-cyclohepta[b]pyridin-9-yl 4-(2-oxo-2,3-dihydro-1H-imidazo[4,5-b]pyridin-1-yl)piperidine-1-carboxylate], the IC50 was determined as 8.6 nM.
In turn, `O=C(O[C@@H]1CCC(c2cccc(F)c2F)C(O)c2cccnc21)N1CCC(n2c(=O)[nH]c3ncccc32)CC1` (single isomer, unassigned) [Example 5] gave an IC50 of 1.3 nM.
The molecule `O=C(O[C@@H]1CC[C@@](O)(c2cccc(F)c2F)[C@@H](O)c2cccnc21)N1CCC(n2c(=O)[nH]c3ncccc32)CC1` (single isomer, unassigned) [Example 3] gave an IC50 of 500 nM.
The figure for `N[C@@H]1c2cccnc2[C@H](OC(=O)N2CCC(n3c(=O)[nH]c4ncccc43)CC2)CC[C@H]1c1cccc(F)c1F` [Example 8, (5S,6S,9R)-5-amino-6-(2,3-difluorophenyl)-6,7,8,9-tetrahydro-5H-cyclohepta[b]pyridin-9-yl 4-(2-oxo-2,3-dihydro-1H-imidazo[4,5-b]pyridin-1-yl)piperidine-1-carboxylate] is 0.04 nM; for `O=C(O[C@H]1c2ncccc2C[C@H](c2cccc(F)c2F)C[C@H]1O)N1CCC(n2c(=O)[nH]c3ncccc32)CC1` [Example 12, (6S,8R,9S)-6-(2,3-difluorophenyl)-8-hydroxy-6,7,8,9-tetrahydro-5H-cyclohepta[b]pyridin-9-yl 4-(2-oxo-2,3-dihydro-1H-imidazo[4,5-b]pyridin-1-yl)piperidine-1-carboxylate] it is 12 nM; for `N[C@@H]1c2cccnc2[C@H](OC(=O)Nc2ccc3c(c2)CC2(C3)C(=O)Nc3ncccc32)CC[C@H]1c1cccc(F)c1F` (stereo partly drawn) [Example 17, (5S,6S,9R)-5-amino-6-(2,3-difluorophenyl)-6,7,8,9-tetrahydro-5H-cyclohepta[b]pyridin-9-yl 2′-oxo-1,1′,2′,3-tetrahydrospiro[indene-2,3′-pyrrolo[2,3-b]pyridine]-5-ylcarbamate] it is 1.2 nM.
In the case of `O=C(O[C@@H]1CC[C@@H](c2cccc(F)c2F)/C(=N\O)c2cccnc21)N1CCC(n2c(=O)[nH]c3ncccc32)CC1` [Example 16, (6S,9R,E)-6-(2,3-difluorophenyl)-5-(hydroxyimino)-6,7,8,9-tetrahydro-5H-cyclohepta[b]pyridin-9-yl 4-(2-oxo-2,3-dihydro-1H-imidazo[4,5-b]pyridin-1-yl)piperidine-1-carboxylate], the IC50 was 40 nM.
In turn, `N[C@@H]1c2cccnc2[C@H](NC(=O)N2CCC(n3c(=O)[nH]c4ncccc43)CC2)CC[C@H]1c1cccc(F)c1F` [Example 18] came in with a half-maximal inhibitory concentration (IC50) of 0.8 nM.
Regarding `CN[C@@H]1c2cccnc2[C@H](OC(=O)N2CCC(n3c(=O)[nH]c4ncccc43)CC2)CC[C@H]1c1cccc(F)c1F` [Example 13, (5S,6S,9R)-6-(2,3-difluorophenyl)-5-(methylamino)-6,7,8,9-tetrahydro-5H-cyclohepta[b]pyridin-9-yl 4-(2-oxo-2,3-dihydro-1H-imidazo[4,5-b]pyridin-1-yl)piperidine-1-carboxylate], the IC50 is 0.19 nM.
The figure for `O=C(O[C@@H]1CC[C@@](O)(c2cccc(F)c2F)C(=O)c2cccnc21)N1CCC(n2c(=O)[nH]c3ncccc32)CC1` (single isomer, unassigned) [Example 1] is 410 nM; for `N[C@@H]1c2cccnc2[C@H](OC(=O)N2CCC(n3c(=O)[nH]c4ncccc43)CC2)CC[C@H]1c1cc(F)cc(F)c1` [Example 10, (5S,6S,9R)-5-amino-6-(3,5-difluorophenyl)-6,7,8,9-tetrahydro-5H-cyclohepta[b]pyridin-9-yl 4-(2-oxo-2,3-dihydro-1H-imidazo[4,5-b]pyridin-1-yl)piperidine-1-carboxylate] it is 0.2 nM; for `O=C1c2cccnc2[C@H](OC(=O)N2CCC(n3c(=O)[nH]c4ncccc43)CC2)CCC1c1cccc(F)c1F` (mixture of isomers) [Example 2, (9R)-6-(2,3-difluorophenyl)-5-oxo-6,7,8,9-tetrahydro-5H-cyclohepta[b]pyridin-9-yl 4-(2-oxo-2,3-dihydro-1H-imidazo[4,5-b]pyridin-1-yl)piperidine-1-carboxylate] it is 28 nM.
Molecule `O=C(O[C@@H]1CC[C@@H](c2cc(F)cc(F)c2)[C@H](O)c2cccnc21)N1CCC(n2c(=O)[nH]c3ncccc32)CC1` [Example 11, (5S,6S,9R)-6-(3,5-difluorophenyl)-5-hydroxy-6,7,8,9-tetrahydro-5H-cyclohepta[b]pyridin-9-yl 4-(2-oxo-2,3-dihydro-1H-imidazo[4,5-b]pyridin-1-yl)piperidine-1-carboxylate] showed an IC50 of 0.89 nM.
For `[N-]=[N+]=N[C@@H]1c2cccnc2[C@H](OC(=O)N2CCC(n3c(=O)[nH]c4ncccc43)CC2)CC[C@H]1c1cccc(F)c1F` [Example 7, (5S,6S,9R)-5-azido-6-(2,3-difluorophenyl)-6,7,8,9-tetrahydro-5H-cyclohepta[b]pyridin-9-yl 4-(2-oxo-2,3-dihydro-1H-imidazo[4,5-b]pyridin-1-yl)piperidine-1-carboxylate], the IC50 amounted to 0.13 nM.
The molecule `N[C@@H]1c2cccnc2[C@@H](CC(=O)N2CCC(n3c(=O)[nH]c4ncccc43)CC2)CC[C@H]1c1cccc(F)c1F` [Example 21, 1-(1-(2-((5S,6S,9R)-5-amino-6-(2,3-difluorophenyl)-6,7,8,9-tetrahydro-5H-cyclohepta[b]pyridin-9-yl)acetyl)piperidin-4-yl)-1H-imidazo[4,5-b]pyridin-2(3H)-one] gave an IC50 above 1000 nM.

Usually IC50 stands for the point on the concentration scale where inhibition reaches its midpoint. Read a high IC50 as weaker potency in that assay.
